Among the test systems are 786-0 renal; HCT-116 colon; KM12 colon; MOLT-4 leukemia; NCI-H522 lung; OVCAR-3 ovarian; RPMI-8226 leukemia; SK-MEL-28 melanoma; SW-620 colon; OVCAR-8 ovarian.
Test in all cases: DTP human tumour cell line panel, 48 h

Structures are written as SMILES.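 Cultured in 96-well plates, cells were exposed to test compound for 48 hours across five concentrations. GI50 = concentration required for 50% inhibition of growth. TGI: concentration producing complete growth inhibition.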

Broadly, the TGI is the concentration giving total growth inhibition. On to `COC(OC)[C@@H]1OC[C@@H](O)[C@@H]1n1cnc2c(N)ncnc21`, for which the TGI with 786-0 renal, in the experiment with HCT-116 colon, with KM12 colon, in the experiment on MOLT-4 leukemia, in the experiment on NCI-H522 lung and with OVCAR-3 ovarian was more than 100 µM each time. Also, the TGI in the experiment on RPMI-8226 leukemia, with SK-MEL-28 melanoma and with SW-620 colon was more than 100 µM in each case.

Regarding `CCCC(CCN)(CCN)[N+](=O)[O-]`, the TGI in the experiment on 786-0 renal, in the experiment with HCT-116 colon, in the experiment with KM12 colon, with MOLT-4 leukemia, in the experiment on NCI-H522 lung and in the experiment on OVCAR-8 ovarian was more than 100 µM each time. The TGI in the experiment on RPMI-8226 leukemia and in the experiment on SW-620 colon was more than 100 µM in each case.

With `COc1cc2nc(-c3cccs3)[nH]c(=O)c2cc1OC`, the total growth inhibition concentration (TGI) in the experiment with 786-0 renal, in the experiment with HCT-116 colon, in the experiment on KM12 colon, in the experiment on NCI-H522 lung, in the experiment with OVCAR-3 ovarian and in the experiment on OVCAR-8 ovarian was more than 100 µM throughout. Also, the TGI in the experiment with RPMI-8226 leukemia, in the experiment on SK-MEL-28 melanoma and in the experiment on SW-620 colon was more than 100 µM each time.

Take `CCOC(=O)Oc1ccc2c(c1)c(=O)c1c(NCCN(CC)CC)ccc3nnn2c31`: the TGI was 13 µM in the experiment with 786-0 renal; 12.6 µM with HCT-116 colon; 14.9 µM with KM12 colon; 13.6 µM in the experiment on MOLT-4 leukemia; 6.61 µM with NCI-H522 lung; 19.7 µM in the experiment with OVCAR-3 ovarian. Besides, the TGI in the experiment on OVCAR-8 ovarian was determined as 14.3 µM; in the experiment with RPMI-8226 leukemia, 4.86 µM; in the experiment with SK-MEL-28 melanoma it was 24.1 µM; in the experiment on SW-620 colon, 13.2 µM.

On to `O=C(NNc1nc(-c2ccccc2)cs1)C(F)(F)F`, for which the concentration for total growth inhibition (TGI) with 786-0 renal, in the experiment on HCT-116 colon, in the experiment with KM12 colon, with MOLT-4 leukemia, in the experiment with NCI-H522 lung and in the experiment on OVCAR-8 ovarian was more than 100 µM throughout. The TGI was 47 µM in the experiment on RPMI-8226 leukemia, 88.8 µM in the experiment on SK-MEL-28 melanoma and more than 100 µM with SW-620 colon.

In the case of `COc1ccc2oc(=O)c(-c3csc(C)n3)cc2c1`, the TGI with 786-0 renal, with HCT-116 colon, in the experiment on KM12 colon, with MOLT-4 leukemia, in the experiment on RPMI-8226 leukemia and in the experiment with SK-MEL-28 melanoma was more than 100 µM in each case. Further, in the experiment with SW-620 colon, the TGI was more than 100 µM.

Turning to `C[C@@H]1S[C@H](c2c(Cl)cccc2Cl)N2Cc3ccccc3N=C12`, the TGI in the experiment on 786-0 renal, with HCT-116 colon, in the experiment on KM12 colon, in the experiment with MOLT-4 leukemia, in the experiment on OVCAR-3 ovarian and in the experiment on RPMI-8226 leukemia was more than 100 µM throughout. For the same compound, the TGI with SK-MEL-28 melanoma and in the experiment on SW-620 colon was more than 100 µM throughout.

Consider `CCN(CC)c1ccc(/C=C/C=C2C(=O)NC(=S)NC2=O)cc1`, for which the concentration for total growth inhibition (TGI) was more than 100 µM in the experiment with 786-0 renal; more than 100 µM with HCT-116 colon; more than 100 µM with KM12 colon; more than 100 µM in the experiment on MOLT-4 leukemia; more than 72.6 µM with OVCAR-3 ovarian; 42.4 µM with OVCAR-8 ovarian. Moreover, the TGI in the experiment with RPMI-8226 leukemia, in the experiment with SK-MEL-28 melanoma and with SW-620 colon was more than 100 µM each time.

Consider `Cc1ccccc1NC(=O)Cc1csc2[n+]1C(=O)/C(=C/c1ccc([N+](=O)[O-])cc1)S2`, for which the TGI in the experiment with 786-0 renal, in the experiment on HCT-116 colon, in the experiment on KM12 colon, with MOLT-4 leukemia, with OVCAR-3 ovarian and in the experiment with OVCAR-8 ovarian was more than 100 µM in each case. The concentration for total growth inhibition (TGI) with SK-MEL-28 melanoma and in the experiment on SW-620 colon was more than 100 µM each time.

Consider `CC1(C)CC(=O)C2=C(C1)OC1=C(CC(C)(C)CC1=O)C2c1ccccc1[N+](=O)[O-]` (configuration not stated), for which the TGI in the experiment with 786-0 renal, with HCT-116 colon, in the experiment with KM12 colon, in the experiment with MOLT-4 leukemia, in the experiment on NCI-H522 lung and in the experiment on OVCAR-3 ovarian was more than 100 µM in each case. For the same compound, the TGI in the experiment with RPMI-8226 leukemia, in the experiment on SK-MEL-28 melanoma and in the experiment on SW-620 colon was more than 100 µM in each case.

In general, GI50 refers to the concentration giving 50% growth inhibition. For `Cc1nc2ccccc2c(/C=C/c2ccc(Cl)cc2)c1C(=O)/C=C/c1ccc(Cl)cc1`, the GI50 with MOLT-4 leukemia is 0.788 µM; with NCI-H522 lung, 1.25 µM; in the experiment on RPMI-8226 leukemia, 1.2 µM; in the experiment on SK-MEL-28 melanoma it was 1.67 µM. Moreover, the TGI in the experiment with MOLT-4 leukemia is more than 100 µM; with NCI-H522 lung, 4.77 µM; in the experiment on RPMI-8226 leukemia, 6.34 µM; with SK-MEL-28 melanoma it was 3.12 µM.

As to `C=CCOCn1cc(C)c(=O)[nH]c1=O`, the concentration for total growth inhibition (TGI) was more than 100 µM in the experiment on 786-0 renal; more than 100 µM in the experiment on HCT-116 colon; more than 100 µM in the experiment with KM12 colon; more than 100 µM in the experiment with MOLT-4 leukemia; 50.2 µM in the experiment with NCI-H522 lung; more than 100 µM in the experiment on OVCAR-8 ovarian. Besides, the TGI with RPMI-8226 leukemia, with SK-MEL-28 melanoma and in the experiment with SW-620 colon was more than 100 µM each time.

For the compound `O=C(NC(=S)NC(=O)c1cc(O)c(O)c(O)c1)c1cc(O)c(O)c(O)c1`, the TGI in the experiment on 786-0 renal was 40.2 µM; in the experiment on HCT-116 colon it was 44.4 µM; with KM12 colon it was 70.5 µM; in the experiment with NCI-H522 lung, 70.3 µM; with OVCAR-8 ovarian, 44.5 µM; in the experiment on RPMI-8226 leukemia, more than 100 µM. The values for the TGI with SK-MEL-28 melanoma and with SW-620 colon were 73.9 µM and more than 100 µM, respectively.

For the compound `O=C(OCC(Cl)(Cl)Cl)O[C@@H]1CCCC1(c1ccccc1)c1ccccc1`, the total growth inhibition concentration (TGI) in the experiment with 786-0 renal is more than 100 µM; in the experiment on HCT-116 colon, more than 100 µM; with KM12 colon, more than 100 µM; in the experiment on MOLT-4 leukemia, 34.1 µM; in the experiment on NCI-H522 lung, more than 100 µM; in the experiment on SK-MEL-28 melanoma it was more than 100 µM. The same compound gave a TGI in the experiment on SW-620 colon of more than 100 µM.

Regarding `CCN(CC)c1ccc2cc(C(=O)Nc3ccccn3)c(=N)oc2c1`, the TGI in the experiment with 786-0 renal, in the experiment on HCT-116 colon, in the experiment on KM12 colon, with MOLT-4 leukemia, in the experiment on OVCAR-3 ovarian and in the experiment with OVCAR-8 ovarian was more than 100 µM in each case. Besides, the TGI with RPMI-8226 leukemia, with SK-MEL-28 melanoma and with SW-620 colon was more than 100 µM each time.

Source of the values: PubChem BioAssay (NCI).
